Laboratory results published in BigSolDB 2.1.

## O=C(N[C@@H](Cc1c[nH]c2ccccc12)C(=O)O)OCc1ccccc1
In 2-butanone, 283.15 K
  solubility (mole fraction): 0.133
In 2-butanone, 288.15 K
  solubility (mole fraction): 0.143
In 2-butanone, 293.15 K
  solubility (mole fraction): 0.152
In 2-butanone, 298.15 K
  solubility (mole fraction): 0.161
In 2-butanone, 303.15 K
  solubility (mole fraction): 0.173
In 2-butanone, 308.15 K
  solubility (mole fraction): 0.182
In 2-butanone, 313.15 K
  solubility (mole fraction): 0.196
In 2-butanone, 318.15 K
  solubility (mole fraction): 0.205
In 2-butanone, 323.15 K
  solubility (mole fraction): 0.221
In acetone, 283.15 K
  solubility (mole fraction): 0.204
In acetone, 288.15 K
  solubility (mole fraction): 0.23
In acetone, 293.15 K
  solubility (mole fraction): 0.264
In acetone, 298.15 K
  solubility (mole fraction): 0.306
In acetone, 303.15 K
  solubility (mole fraction): 0.358
In acetone, 308.15 K
  solubility (mole fraction): 0.409
In acetone, 313.15 K
  solubility (mole fraction): 0.458
In acetone, 318.15 K
  solubility (mole fraction): 0.505
In acetone, 323.15 K
  solubility (mole fraction): 0.557
In acetonitrile, 283.15 K
  solubility (mole fraction): 0.0197
In acetonitrile, 288.15 K
  solubility (mole fraction): 0.025
In acetonitrile, 293.15 K
  solubility (mole fraction): 0.0305
In acetonitrile, 298.15 K
  solubility (mole fraction): 0.0428
In acetonitrile, 303.15 K
  solubility (mole fraction): 0.06
In acetonitrile, 308.15 K
  solubility (mole fraction): 0.0766
In acetonitrile, 313.15 K
  solubility (mole fraction): 0.0967
In acetonitrile, 318.15 K
  solubility (mole fraction): 0.117
In acetonitrile, 323.15 K
  solubility (mole fraction): 0.134
In ethanol, 283.15 K
  solubility (mole fraction): 0.0567
In ethanol, 288.15 K
  solubility (mole fraction): 0.0689
In ethanol, 293.15 K
  solubility (mole fraction): 0.0826
In ethanol, 298.15 K
  solubility (mole fraction): 0.1
In ethanol, 303.15 K
  solubility (mole fraction): 0.124
In ethanol, 308.15 K
  solubility (mole fraction): 0.142
In ethanol, 313.15 K
  solubility (mole fraction): 0.164
In ethanol, 318.15 K
  solubility (mole fraction): 0.189
In ethanol, 323.15 K
  solubility (mole fraction): 0.208
In ethyl acetate, 283.15 K
  solubility (mole fraction): 0.0484
In ethyl acetate, 288.15 K
  solubility (mole fraction): 0.0559
In ethyl acetate, 293.15 K
  solubility (mole fraction): 0.0629
In ethyl acetate, 298.15 K
  solubility (mole fraction): 0.0707
In ethyl acetate, 303.15 K
  solubility (mole fraction): 0.0794
In ethyl acetate, 308.15 K
  solubility (mole fraction): 0.0906
In ethyl acetate, 313.15 K
  solubility (mole fraction): 0.103
In ethyl acetate, 318.15 K
  solubility (mole fraction): 0.118
In ethyl acetate, 323.15 K
  solubility (mole fraction): 0.133
In isobutanol, 283.15 K
  solubility (mole fraction): 0.00972
In isobutanol, 288.15 K
  solubility (mole fraction): 0.0123
In isobutanol, 293.15 K
  solubility (mole fraction): 0.0177
In isobutanol, 298.15 K
  solubility (mole fraction): 0.0245
In isobutanol, 303.15 K
  solubility (mole fraction): 0.0302
In isobutanol, 308.15 K
  solubility (mole fraction): 0.0379
In isobutanol, 313.15 K
  solubility (mole fraction): 0.045
In isobutanol, 318.15 K
  solubility (mole fraction): 0.0547
In isobutanol, 323.15 K
  solubility (mole fraction): 0.0692
In isopropanol, 283.15 K
  solubility (mole fraction): 0.0299
In isopropanol, 288.15 K
  solubility (mole fraction): 0.0351
In isopropanol, 293.15 K
  solubility (mole fraction): 0.0439
In isopropanol, 298.15 K
  solubility (mole fraction): 0.0536
In isopropanol, 303.15 K
  solubility (mole fraction): 0.0656
In isopropanol, 308.15 K
  solubility (mole fraction): 0.08
In isopropanol, 313.15 K
  solubility (mole fraction): 0.0917
In isopropanol, 318.15 K
  solubility (mole fraction): 0.109
In isopropanol, 323.15 K
  solubility (mole fraction): 0.125
In methyl acetate, 283.15 K
  solubility (mole fraction): 0.0663
In methyl acetate, 288.15 K
  solubility (mole fraction): 0.0737
In methyl acetate, 293.15 K
  solubility (mole fraction): 0.0836
In methyl acetate, 298.15 K
  solubility (mole fraction): 0.0968
In methyl acetate, 303.15 K
  solubility (mole fraction): 0.112
In methyl acetate, 308.15 K
  solubility (mole fraction): 0.125
In methyl acetate, 313.15 K
  solubility (mole fraction): 0.141
In methyl acetate, 318.15 K
  solubility (mole fraction): 0.162
In methyl acetate, 323.15 K
  solubility (mole fraction): 0.182
In n-butanol, 283.15 K
  solubility (mole fraction): 0.0231
In n-butanol, 288.15 K
  solubility (mole fraction): 0.0278
In n-butanol, 293.15 K
  solubility (mole fraction): 0.0334
In n-butanol, 298.15 K
  solubility (mole fraction): 0.0403
In n-butanol, 303.15 K
  solubility (mole fraction): 0.0526
In n-butanol, 308.15 K
  solubility (mole fraction): 0.0666
In n-butanol, 313.15 K
  solubility (mole fraction): 0.0784
In n-butanol, 318.15 K
  solubility (mole fraction): 0.0941
In n-butanol, 323.15 K
  solubility (mole fraction): 0.114
In n-pentanol, 283.15 K
  solubility (mole fraction): 0.0181
In n-pentanol, 288.15 K
  solubility (mole fraction): 0.0209
In n-pentanol, 293.15 K
  solubility (mole fraction): 0.0252
In n-pentanol, 298.15 K
  solubility (mole fraction): 0.0322
In n-pentanol, 303.15 K
  solubility (mole fraction): 0.0393
In n-pentanol, 308.15 K
  solubility (mole fraction): 0.0458
In n-pentanol, 313.15 K
  solubility (mole fraction): 0.0536
In n-pentanol, 318.15 K
  solubility (mole fraction): 0.0631
In n-pentanol, 323.15 K
  solubility (mole fraction): 0.0717
In n-propanol, 283.15 K
  solubility (mole fraction): 0.0283
In n-propanol, 288.15 K
  solubility (mole fraction): 0.0389
In n-propanol, 293.15 K
  solubility (mole fraction): 0.0502
In n-propanol, 298.15 K
  solubility (mole fraction): 0.064
In n-propanol, 303.15 K
  solubility (mole fraction): 0.0763
In n-propanol, 308.15 K
  solubility (mole fraction): 0.0881
In n-propanol, 313.15 K
  solubility (mole fraction): 0.104
In n-propanol, 318.15 K
  solubility (mole fraction): 0.123
In n-propanol, 323.15 K
  solubility (mole fraction): 0.141
In water, 283.15 K
  solubility (mole fraction): 4.06e-05
In water, 288.15 K
  solubility (mole fraction): 5.32e-05
In water, 293.15 K
  solubility (mole fraction): 6.49e-05
In water, 298.15 K
  solubility (mole fraction): 7.79e-05
In water, 303.15 K
  solubility (mole fraction): 8.87e-05
In water, 308.15 K
  solubility (mole fraction): 9.81e-05
In water, 313.15 K
  solubility (mole fraction): 0.000109
In water, 318.15 K
  solubility (mole fraction): 0.000118
In water, 323.15 K
  solubility (mole fraction): 0.000125
